Experimental data published in US20220202882A1, “EFFECT OF COMBINATION OF BIFIDOBACTERIUM AND BERBERINE ON PRE-DIABETES AND TYPE 2 DIABETES” (The Fourth Military Medical University, priority 2018, published 2022).
Counter-ions that a name gives are not always drawn.

System: pre-diabetic and type 2 diabetes mellitus patients
Assay: Clinical trial: adverse events (safety evaluation)
Type: in vivo, human
Experimental: From June 2015 to October 2018, a double-blind, randomized, and parallel-controlled trial, studying the effects of the combined use of Bifidobacterium and berberine on pre-diabetic and type 2 diabetes mellitus patients, was conducted in 10 research centers in Xi'an, Yan'an and Shangluo of Shaanxi province, etc., including the First Affiliated Hospital of the Fourth Military Medical University.
The trial included an enrollment stage of 2 weeks and a treatment stage of 16 weeks. After passing the first visit 1 (see V1 in Table 1), the subjects entered the enrollment stage, i.e., 2 weeks of lifestyle intervention, followed by a re-screening (see V2 in Table 1). The subjects were subjected to a 16-week course of treatment after passing the screening. See Table 1 for the detailed screening parameters.
After the enrollment stage, the baseline data of the 300 successfully enrolled subjects were collected. Meanwhile, the subjects started to receive lifestyle guidance, and were randomly divided into four groups for 16 weeks of treatments.
1) Bifidobacterium group: the subjects were administered with Bifidobacterium capsules (Livzon Pharmaceutical Group Inc., batch no.: 20141013), 0.35 g/capsule, each capsule containing 50,000,000 viable bacteria (Bifidobacterium adolescentis DM8504), 2 capsules/time, 2 times/day, plus berberine placebo tablets (Northeast Pharma Group Shenyang First Pharma Co., Ltd., Lot no.: 20150101, containing 80.2% microcrystalline cellulose, 9.4% pregelatinized starch, 6.4% sodium carboxymethyl starch, 1% magnesium stearate, and 3% copovidone), 0.1 g/tablet, 5 tablets/time, 2 times/day.
2) Berberine group: the subjects were administered with berberine tablets (Northeast Pharma Group Shenyang First Pharma Co., Ltd., Lot no.: 130917, each tablet weighted 0.165 g and contained 0.1 g active berberine ingredient (berberine hydrochloride), with the same excipients as the placebo tablets), 5 tablets/time, 2 times/day, plus Bifidobacterium placebo capsules (Livzon Pharmaceutical Group Inc., Lot no.: 141001, specifically containing 0.348 g spray-dried lactose, and 0.002 g magnesium stearate), 0.35 g/capsule, 2 capsules/time, 2 times/day.
3) Combination Group: the subjects were administered with Bifidobacterium capsules, 0.35 g/capsule, each capsule containing 50,000,000 viable bacteria (B. adolescentis DM8504), 2 capsules/time, 2 times/day, plus berberine tablets, 0.1 g/tablet, each tablet containing 0.1 g active berberine ingredient (berberine hydrochloride), 5 tablets/time, 2 times/day.
4) Control group: the subjects were administered with Bifidobacteria placebo capsules, 0.35 g/capsule, 2 capsules/time, 2 times/day, plus berberine placebo tablets, 0.1 g/tablet, 5 tablets/time, 2 times/day.
Bifidobacterium capsules were taken after meals and berberine tablets were taken before meals.
After the sample testing was finished, 1) Chi-Squared test and t-test were used to evaluate the intergroup balance of the baseline data including the demographic characteristics and pre-treatment indicators, wherein the baseline data referred to those collected at the second visit, before the formal administration, the data collected at the first visit on the enrollment stage were used instead if the data at the second visit was lacking; 2) two-way disordered CM-CH11, Kruska-Wilcox test, etc. were used for analysis and intergroup comparison of pre- and post-treatment indicators such as fasting plasma glucose (FPG), HbA1c, plasma glucose at 2 hours post OGTT (2-h PPG), blood pressure, blood lipids, body weight and BMI; 3) adverse events and hypoglycemia events were described in terms of the type, frequency and relevance with the drugs, for safety evaluation. Software SAS 9.1.3 was used for statistical analysis with all analysis processes being programmed.
All subjects who followed the intent-to-treat principle, grouped randomly, and received the treatment trial and at least one efficacy evaluation were included in the full Analysis Set (FAS). […]

| Molecule | Adverse event rate (throughout the trial) [%] | Event rate of adverse events correlated with medications (throughout the trial) [%] | Number of adverse events correlated with medications (abdominal discomfort, abnormal bowel movement) (throughout the trial) | Number of subjects with adverse events (throughout the trial) | Number of subjects with adverse events correlated with medications (throughout the trial) | Adverse event rate (human, in vivo) [%] | Event rate of adverse events correlated with medications (human, in vivo) [%] | Number of adverse events correlated with medications (abdominal discomfort, abnormal bowel movement) (human, in vivo) | Number of adverse events reported (human, in vivo) | Number of subjects with adverse events (human, in vivo) | Number of subjects with adverse events correlated with medications (human, in vivo) |
| --- | --- | --- | --- | --- | --- | --- | --- | --- | --- | --- | --- |
| COc1ccc2cc3[n+](cc2c1OC)CCc1cc2c(cc1-3)OCO2 [Berberine, berberine hydrochloride] | 81.63 | 18.37 | 19 | 40 | 9 | – | – | – | – | – | – |
| Bifidobacterium | – | – | – | – | – | 84 | 21.0 | 30 | 203 | 84 | 21 |
